Results: PubChem BioAssay (NCI)
Several values for one entry are separate records, joined by “and”; a condition that tells them apart may be missing. Equal values may be shown once.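 Step 1: Grow cells in 96-well plates. Step 2: Expose to compound for 48 hours at 5 concentrations. Step 3: Interpolate endpoints linearly; if unreached, use highest concentration. GI50: concentration for 50% inhibition of growth. TGI: total growth inhibition.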

Assays:
Test in all cases: inhibition of tumour cell growth, NCI panel, 48 h
COLO 205 colon = test system: COLO 205 colon
DU-145 prostate = test system: DU-145 prostate
HOP-92 NSCLC = test system: HOP-92 NSCLC
MALME-3M melanoma = test system: MALME-3M melanoma
MOLT-4 leukemia = test system: MOLT-4 leukemia
NCI-H226 lung = test system: NCI-H226 lung
NCI-H23 lung = test system: NCI-H23 lung
RXF 393 renal = test system: RXF 393 renal
SF-295 CNS = test system: SF-295 CNS
UO-31 renal = test system: UO-31 renal

Q: With `CCn1c(=O)c2c3ccc(O)cc3[nH]c2c2ccc(O)cc21` as the molecule, how does the TGI (COLO 205 colon) read?
A: The TGI was greater than 100 µM.

Q: And the TGI (DU-145 prostate)?
A: Its TGI is greater than 100 µM.

Q: And the TGI (HOP-92 NSCLC)?
A: Its TGI is greater than 100 µM.

Q: What about the TGI (MALME-3M melanoma) of the same molecule?
A: Its TGI is greater than 100 µM.

Q: And the TGI (MOLT-4 leukemia)?
A: Its TGI is greater than 100 µM.

Q: And the TGI (NCI-H226 lung)?
A: The TGI was greater than 100 µM.

Q: What about the TGI (NCI-H23 lung) of the same molecule?
A: Its TGI is greater than 100 µM.

Q: And the TGI (RXF 393 renal)?
A: The TGI was greater than 100 µM.

Q: And the TGI (SF-295 CNS)?
A: The TGI was greater than 100 µM.

Q: What about the TGI (UO-31 renal) of the same molecule?
A: The TGI was greater than 100 µM.

Q: Which results are given for `CC(=O)OC1(C)CC(C)C(=O)C(C(O)CC2CC(=O)NC(=O)C2)C1` (configuration not stated)?
A: TGI (COLO 205 colon): 0.18 µM and 0.0404 µM; TGI (DU-145 prostate): 0.449 µM and 0.264 µM; TGI (HOP-92 NSCLC): 0.0121 µM; TGI (MALME-3M melanoma): 0.375 µM and 0.753 µM; TGI (MOLT-4 leukemia): 0.316 µM; GI50 (NCI-H226 lung): 10.8 nM; TGI (NCI-H226 lung): 0.275 µM; TGI (RXF 393 renal): 0.0899 µM; TGI (SF-295 CNS): 0.03 µM; TGI (UO-31 renal): 0.643 µM and 0.389 µM

Q: What does the source list for `Nc1n[nH]c(N)n1`?
A: TGI (COLO 205 colon): 9990 µM; TGI (DU-145 prostate): > 10000 µM; TGI (HOP-92 NSCLC): 9580 µM; TGI (MALME-3M melanoma): > 10000 µM; TGI (MOLT-4 leukemia): > 10000 µM; TGI (NCI-H226 lung): > 10000 µM; TGI (NCI-H23 lung): > 9700 µM; TGI (RXF 393 renal): > 10000 µM; TGI (SF-295 CNS): 7800 µM; TGI (UO-31 renal): > 10000 µM

Q: With `NCCNc1ccc(NCCN)c2c1C(=O)c1c(O)ccc(O)c1C2=O` as the molecule, how does the GI50 (COLO 205 colon) read?
A: The GI50 was 157 nM.

Q: What about the TGI (COLO 205 colon) of the same molecule?
A: Its TGI is 2.36 µM and 1.19 µM.

Q: What about the GI50 (DU-145 prostate) of the same molecule?
A: The GI50 was 30.1 nM.

Q: And the TGI (DU-145 prostate)?
A: Its TGI is 0.398 µM and 2.56 µM.

Q: What about the GI50 (HOP-92 NSCLC) of the same molecule?
A: Its GI50 is 229 nM.

Q: What about the TGI (HOP-92 NSCLC) of the same molecule?
A: The TGI was 0.0789 µM.

Q: And the GI50 (MALME-3M melanoma)?
A: Its GI50 is 112 nM.

Q: And the TGI (MALME-3M melanoma)?
A: Its TGI is 1.46 µM and 1.34 µM.

Q: What about the TGI (MOLT-4 leukemia) of the same molecule?
A: The TGI was 0.216 µM.

Q: What about the GI50 (NCI-H226 lung) of the same molecule?
A: Its GI50 is 10.2 nM.

Q: And the TGI (NCI-H226 lung)?
A: The TGI was 0.0439 µM and 0.0393 µM.

Q: What about the GI50 (NCI-H23 lung) of the same molecule?
A: The GI50 was less than 14.4 nM.

Q: And the TGI (NCI-H23 lung)?
A: The TGI was 0.0442 µM and 0.0835 µM.

Q: What about the GI50 (RXF 393 renal) of the same molecule?
A: The GI50 was 179 nM.

Q: And the TGI (RXF 393 renal)?
A: The TGI was 0.387 µM and 0.679 µM.

Q: What about the GI50 (SF-295 CNS) of the same molecule?
A: Its GI50 is less than 13.1 nM.

Q: What about the TGI (SF-295 CNS) of the same molecule?
A: Its TGI is 0.414 µM and 0.0618 µM.

Q: What about the GI50 (UO-31 renal) of the same molecule?
A: Its GI50 is 57.9 nM.

Q: What about the TGI (UO-31 renal) of the same molecule?
A: Its TGI is 0.823 µM and 0.374 µM.

Q: What does the source list for `Oc1ccccc1CNCc1ccccc1O`?
A: TGI (COLO 205 colon): > 100 µM; TGI (DU-145 prostate): > 100 µM; TGI (HOP-92 NSCLC): > 100 µM; TGI (MALME-3M melanoma): > 100 µM; TGI (MOLT-4 leukemia): > 100 µM; TGI (NCI-H226 lung): > 100 µM; TGI (NCI-H23 lung): > 100 µM; TGI (RXF 393 renal): > 100 µM; TGI (SF-295 CNS): > 100 µM; TGI (UO-31 renal): > 100 µM

Q: Which results are given for `CCN(CC)CCCNC(=O)c1ccccc1Nc1c(Cl)cccc1Cl`?
A: TGI (COLO 205 colon): 28 µM; TGI (MOLT-4 leukemia): 27.9 µM; TGI (NCI-H226 lung): 28.6 µM; TGI (NCI-H23 lung): 30.9 µM; TGI (RXF 393 renal): 23 µM; TGI (UO-31 renal): 20.3 µM

Q: `CCCCCC1CC(C(C)=O)CN1c1ccc(F)cc1` (configuration not stated) was tested. Which TGI (COLO 205 colon) did it give?
A: The TGI was greater than 100 µM.

Q: What about the TGI (HOP-92 NSCLC) of the same molecule?
A: The TGI was 83.6 µM.

Q: What about the TGI (MALME-3M melanoma) of the same molecule?
A: The TGI was greater than 100 µM.

Q: And the TGI (NCI-H23 lung)?
A: Its TGI is 63.8 µM.

Q: What about the TGI (RXF 393 renal) of the same molecule?
A: Its TGI is greater than 100 µM.

Q: What about the TGI (SF-295 CNS) of the same molecule?
A: Its TGI is 63.3 µM.

Q: What about the TGI (UO-31 renal) of the same molecule?
A: Its TGI is greater than 100 µM.

Q: For `O=c1[nH]c(Br)nc2n[nH]nc12`, which TGI (COLO 205 colon) is on record?
A: Its TGI is greater than 100 µM.

Q: And the TGI (DU-145 prostate)?
A: The TGI was greater than 100 µM.

Q: What about the TGI (HOP-92 NSCLC) of the same molecule?
A: The TGI was greater than 100 µM.

Q: What about the TGI (MALME-3M melanoma) of the same molecule?
A: The TGI was greater than 100 µM.

Q: What about the TGI (MOLT-4 leukemia) of the same molecule?
A: Its TGI is 44.3 µM.

Q: And the TGI (NCI-H226 lung)?
A: Its TGI is greater than 100 µM.

Q: What about the TGI (NCI-H23 lung) of the same molecule?
A: Its TGI is greater than 100 µM.

Q: And the TGI (RXF 393 renal)?
A: Its TGI is greater than 100 µM.

Q: What about the TGI (SF-295 CNS) of the same molecule?
A: Its TGI is greater than 100 µM.

Q: What about the TGI (UO-31 renal) of the same molecule?
A: Its TGI is greater than 100 µM.

Q: How did the TGI (COLO 205 colon) turn out when `CCC/C=C/C=C\C(=O)O[C@@H]1[C@@H](C)[C@]2(O)[C@@H]3C=C(C)C(=O)[C@H]3CC(COC(C)=O)=C[C@H]2[C@@H]2C(C)(C)[C@]12OC(C)=O` was run?
A: The TGI was 22.5 µM.

Q: And the TGI (HOP-92 NSCLC)?
A: The TGI was 156 µM.

Q: And the TGI (MALME-3M melanoma)?
A: The TGI was 86.6 µM.

Q: And the TGI (MOLT-4 leukemia)?
A: The TGI was 85.2 µM.

Q: And the TGI (NCI-H226 lung)?
A: Its TGI is greater than 97.6 µM.

Q: What about the TGI (NCI-H23 lung) of the same molecule?
A: The TGI was 98.6 µM.

Q: And the TGI (RXF 393 renal)?
A: Its TGI is 113 µM.

Q: What about the TGI (SF-295 CNS) of the same molecule?
A: The TGI was 39.5 µM.

Q: What about the TGI (UO-31 renal) of the same molecule?
A: Its TGI is 92.3 µM.

Q: How did the TGI (COLO 205 colon) turn out when `CC(=O)C(C(=O)C(=O)Nc1cc(Cl)c(Cl)cc1Cl)c1csc(N)n1` (configuration not stated) was run?
A: The TGI was greater than 100 µM.

Q: And the TGI (HOP-92 NSCLC)?
A: The TGI was greater than 100 µM.

Q: What about the TGI (MOLT-4 leukemia) of the same molecule?
A: The TGI was greater than 100 µM.

Q: And the TGI (NCI-H226 lung)?
A: Its TGI is greater than 100 µM.

Q: What about the TGI (NCI-H23 lung) of the same molecule?
A: The TGI was greater than 100 µM.

Q: And the TGI (RXF 393 renal)?
A: The TGI was greater than 100 µM.

Q: What about the TGI (SF-295 CNS) of the same molecule?
A: The TGI was greater than 100 µM.

Q: What about the TGI (UO-31 renal) of the same molecule?
A: The TGI was greater than 100 µM.

Q: For `O=C(N/N=C/c1cc(Cl)cc(Cl)c1[O-])c1ccccc1O.O=C(N/N=C/c1cc(Cl)cc(Cl)c1[O-])c1ccccc1O.[Cu+2]`, which GI50 (COLO 205 colon) is on record?
A: Its GI50 is 186 nM.

Q: What about the TGI (COLO 205 colon) of the same molecule?
A: Its TGI is 0.348 µM.

Q: What about the GI50 (HOP-92 NSCLC) of the same molecule?
A: Its GI50 is 224 nM.

Q: What about the TGI (HOP-92 NSCLC) of the same molecule?
A: The TGI was 0.671 µM.

Q: What about the GI50 (MALME-3M melanoma) of the same molecule?
A: Its GI50 is 367 nM.

Q: And the TGI (MALME-3M melanoma)?
A: The TGI was 1.38 µM.

Q: What about the GI50 (MOLT-4 leukemia) of the same molecule?
A: The GI50 was 285 nM.

Q: And the TGI (MOLT-4 leukemia)?
A: The TGI was 2.12 µM.

Q: What about the GI50 (NCI-H23 lung) of the same molecule?
A: Its GI50 is 436 nM.

Q: And the TGI (NCI-H23 lung)?
A: The TGI was 1.66 µM.

Q: And the TGI (RXF 393 renal)?
A: The TGI was 0.766 µM.

Q: What about the TGI (SF-295 CNS) of the same molecule?
A: Its TGI is 1.26 µM.

Q: What about the TGI (UO-31 renal) of the same molecule?
A: Its TGI is 1.41 µM.

Q: Which results are given for `NC1C2C=CC(C2)C1C(=O)O` (configuration not stated)?
A: TGI (COLO 205 colon): > 100 µM; TGI (DU-145 prostate): > 100 µM; TGI (HOP-92 NSCLC): > 100 µM; TGI (MALME-3M melanoma): > 100 µM; TGI (MOLT-4 leukemia): > 100 µM; TGI (NCI-H226 lung): > 100 µM; TGI (NCI-H23 lung): > 100 µM; TGI (RXF 393 renal): > 100 µM; TGI (SF-295 CNS): > 100 µM; TGI (UO-31 renal): > 100 µM
